Reference: publication PMC6270821, “ROS-Mediated Cytotoxic Effect of Copper(II) Hydrazone Complexes against Human Glioma Cells” (Molecules, 2014)

Experiments:
[1] = test system: T98 (p53 mutant glioblastoma multiforme) cells; experiment: MTT cytotoxicity assay, T98 cells; type: cell-based, human; details: for IC50: MTT, 48 h treatment; for selectivity index (SI = IC50MRC5/IC50tumor cell), T98: T98 vs MRC5
Method: The in vitro cytotoxic effects of H2AcMe, H2BzMe and complexes 1 and 2 against wild type p53 U87 and mutant p53 T98 glioblastoma cells and against MRC-5 fibroblasts cells were tested using cisplatin as a positive control. To determine the IC50 (concentration that inhibits 50% of cell survival) values the cytotoxic effects were quantified using the 3-(4,5-dimethyl-2-thioazolyl)-2,5-diphenyl tetrazolium bromide (MTT) colorimetric assay. All tested compounds were cytotoxic against both glioma cell lines in a dose-dependent way. The IC50 values (see Table 1) were found in the micromolar range. Despite their cytotoxic activity, all compounds were less toxic to fibroblasts cells than cisplatin. CuCl2 evoked only mild cytotoxicity in all cell lineages with IC50 higher than 100 µM.
U87 (p53 wild-type glioblastoma multiforme) and T98 (p53 mutant glioblastoma multiforme) malignant human tumor cells and MRC5 (Human Fetal Lung Fibroblast) cells were obtained from the American Type Culture Collection (ATCC, Manassas, VA, USA). Cell lines were grown as monolayer in Dulbecco’s Modified Eagle’s Medium (DMEM, Gibco, Rockville, MD, USA), supplemented with 10% fetal bovine serum (Cultilab, Campinas, São Paulo, Brazil) and antibiotics (50 U/mL penicillin/50 […] streptomycin), in a humidified atmosphere air/CO2 (95%/5%) at 37 °C. Cells 80% confluents were used in all experiments. For all experiments, cells were seeded in 96-well plates, at a density of 1000 cells/well. After 24 h incubation cells were treated.
To determine the IC50 values the cytotoxic effects were quantified using the 3-(4,5-dimethyl-2-thioazolyl)-2,5-diphenyltetrazolium bromide (MTT) colorimetric assay. Briefly, cells were treated with increasing concentrations (10^−12, 10^−11, 10^−10, 10^−9, 10^−8, 10^−7, 10^−6, 10^−5, 10^−4 mol·L^−1) of either cisplatin (positive control) or test compounds (H2AcMe, H2BzMe, 1 and 2). The compounds were previously dissolved in dimethyl sulfoxide (DMSO) and the final concentrations were adjusted in DMEM in such manner that the final DMSO concentration was lower than 0.5%. Following 48 h treatment, MTT reagent was added to each well. Following another 4 h of incubation at 37 °C, DMSO was added to each well to dissolve formazan precipitate and absorbance was measured at 570 nm. Tests using DMSO (0.5% in DMEM) as negative control were carried out in parallel. All tests were performed in quadruplicates with full agreement between the results. Statistical analysis was carried out by the unpaired, one-tailed Student’s t testing using a p value of 0.05. A value of p < 0.05 was considered significant.

[2] = test system: EB-CT-DNA; experiment: Competitive binding with EB bound to CT-DNA (fluorescence); set-up: species or system calf; details: for apparent binding constant Kapp (EB-CT-DNA): KEB 1.0 × 10^7 M^−1, [EB] = 10 µM; for number of binding sites n (EB-CT-DNA): Scatchard equation; for Stern-Volmer quenching constant Ksv (EB-CT-DNA) / binding constant K (EB-CT-DNA, Scatchard) / hypochromism in the EB-CT-DNA emission band at 602 nm: Tris-HCl pH 7.20, 25 °C; for hypochromism in the EB-CT-DNA emission band at 602 nm: complex up to 100 µM
Method: Steady-state competitive binding experiments using complexes 1 and 2were undertaken to get further proof for the binding of the complexes to DNA. The technique is based on the decrease of EB fluorescence resulting from the competitive displacement of EB from a DNA groove by a compound that competes for the same site.
The quenching data were analyzed by the Stern-Volmer equation: F0/F = Ksv[Q] + 1 (2) where F0 is the emission intensity in the absence of quencher, F is the emission intensity in the presence of quencher, Ksv is the quenching constant, and [Q] is the quencher concentration. The Ksv value is obtained as a slope from the plot of F0/F vs. [Q] [34].
The apparent binding constants (Kapp) were calculated from Equation (3): KEB [EB] = Kapp [complex] (3) where KEB is 1.0 × 10^7 M^−1, [EB] = 10 µM, and [complex] is the complex concentration when the fluorescence intensity of EB is 50%. This value is obtained from the plot F0/F vs. [complex] when F0/F = 2.
The binding constants (K) were calculated by the Scatchard Equation (4) (see Figure 6): log[(F0 − F)/F] = logK + nlog[Q] (4) where F0 and F are the fluorescence intensities of EB in the absence and presence of compound; [Q] is the compound concentration; K is the binding constant of compound with EB and n is the number of binding sites. K is the antilog of the intercept and n is the slope obtained from the plot of log[(F0 − F)/F] vs. […].
The affinity of the complexes for DNA was evaluated by a fluorescence technique using ethidium bromide (EB) bound to CT-DNA (EB-CT-DNA) solution in Tris-HCl buffer (pH = 7.20). EB is a planar cationic dye which is widely used as a sensitive fluorescence probe for native DNA. EB emits intense fluorescent light in the presence of DNA due to its strong intercalation between the adjacent DNA base-pairs. The changes in the fluorescence intensity at 602 nm (excitation at 545 nm) of EB-CT-DNA were measured with respect to the concentration of the copper(II) complexes. In fact, when it is removed, EB is non-emissive in Tris-HCl buffer solution (pH = 7.20), due to fluorescence quenching of the free EB by solvent molecules.

[3] = test system: pUC 19 plasmid DNA; experiment: Agarose gel electrophoresis of supercoiled plasmid DNA; set-up: species or system Escherichia coli; details: 100 µM, Tris-HCl pH 7.20, 37 °C, 24 h
Method: Studies of interactions between the compounds under study and supercoiled plasmid DNA by agarose gel electrophoresis were carried out. Thus, 136 ng of purified plasmid DNA-pUC 19 from Escherichia coli (Sigma-Aldrich Brasil, São Paulo, Brazil) were incubated with compounds 1, 2 and cisplatin at 100 µM in Tris-HCl buffer (NaCl 50 mM, Tris-HCl 5 mM, pH = 7.20). The mixture was incubated at 37 °C for 24 h. Thereafter, the reactions were quenched by adding 5 µL of the loading buffer solution (50 mM Tris, pH 7.20, 0.01% bromophenol blue, 50% glycerol, and 250 mM EDTA). The samples were analyzed by 1% agarose gel electrophoresis in 0.5 × TBE buffer for 1 h 40 min at […]. The gel was stained after electrophoresis in 0.5× TBE buffer with 2.5 µg·mL^−1 ethidium bromide for 15 min and visualized by UV light.

CC(=O)NN=C(C)c1ccccn1.[Cl][Cu][Cl] [compound 1, [dichloro(2-acetylpyridineacetyl-hydrazone)copper(II)]]
IC50 [1]: 5.08 ± 0.41 µM
selectivity index (SI = IC50MRC5/IC50tumor cell), T98 [1]: 4.42
apparent binding constant Kapp (EB-CT-DNA) [2]: 234000 M⁻¹
number of binding sites n (EB-CT-DNA) [2]: 1.04 ± 0.01
Stern-Volmer quenching constant Ksv (EB-CT-DNA) [2]: (2.35 ± 0.03) × 10^3 M^−1
binding constant K (EB-CT-DNA, Scatchard) [2]: (0.35 ± 0.01) × 10^4 M^−1
hypochromism in the EB-CT-DNA emission band at 602 nm [2]: up to 24%
alteration in the electrophoretic mobility of pUC 19 plasmid DNA [3]: no alteration in the electrophoretic mobility

CC(=O)NN=C(c1ccccc1)c1ccccn1.[Cl][Cu][Cl] [compound 2, [dichloro(2-benzoylpyridineacetylhydrazone)copper(II)]]
IC50 [1]: 29.4 ± 7.06 µM
selectivity index (SI = IC50MRC5/IC50tumor cell), T98 [1]: 1.68
apparent binding constant Kapp (EB-CT-DNA) [2]: 207000 M⁻¹
number of binding sites n (EB-CT-DNA) [2]: 0.81 ± 0.02
Stern-Volmer quenching constant Ksv (EB-CT-DNA) [2]: (2.05 ± 0.03) × 10^3 M^−1
binding constant K (EB-CT-DNA, Scatchard) [2]: (0.38 ± 0.01) × 10^3 M^−1
hypochromism in the EB-CT-DNA emission band at 602 nm [2]: ≤ 20%
alteration in the electrophoretic mobility of pUC 19 plasmid DNA [3]: no alteration in the electrophoretic mobility
